Test results taken from US12577247B2 (BUGWORKS RESEARCH, INC., priority 2021, dated 2026).
Read-outs that look alike come from different tables or passages of the source.

Key:
[1] = Plasma protein binding, equilibrium dialysis, dog; format: in vitro ADME; conditions: plasma (10% plasma, extrapolated to 100% plasma), Beagle plasma, 18 hours at 37° C.
Procedure: (§1) Protein binding is measured using the equilibrium dialysis technique. Compound is added to 10% plasma giving a concentration of 10 μM and dialysed with isotonic buffer for 18 hours at 37° C. The plasma and buffer solutions are analysed using generic LC UV/MS and the first apparent binding constant for the compound derived. The binding constant is then used to determine the % free in 100% plasma
(§2) The percentage of plasma bound/unbound fraction preparation was calculated as follows
(§3) [formula] [formula] where, • Tc=Total plasma concentration was determined by the calculated concentration on the plasma side of the chamber • Fc=[…] was determined by the calculated concentration on the buffer side of the chamber • To=Total compound concentration determined before analysis.

[2] = Plasma protein binding, equilibrium dialysis, human; format: in vitro ADME; conditions: plasma (10% plasma, extrapolated to 100% plasma), 18 hours at 37° C.
Procedure: as §1, §2, §3

[3] = Cell based permeability/efflux Caco-2 assay; format: in vitro ADME; conditions: human, Caco-2, 10 μM; for Papp A→B at 120 min, 10 µM: apical to basolateral; for Papp B→A at 120 min, 10 µM: basolateral to apical
Procedure: Briefly, Permeability in a Caco-2 monolayer was determined at 10 μM. High density Caco-2 cells were obtained with fluent monolayer with trans epithelial electrical resistance (TEER) values greater than 350 ohm·cm^2 in the assay at 21 days of culture in 24 or 96 well insert plates. TEER was measured both before and after performing all the transport experiments. […] Transport buffer, 800 μL Hanks balanced salt sodium (HBSS) (pH 7.4) consisting of 10 mM HEPES without proteins was first dispensed to the basal side of the monolayer. The assay was then initiated by adding 200 μL, of compound solution to the apical side (all test compounds were diluted in HBSS, pH 6.5, with 1% DMSO as co-solvent). Two μL and 200 μL of samples were withdrawn before and at 45- and 120-min post addition of test compound, from the apical donor compartment and the base lateral receiver compartment, respectively. The transwell plates were kept for 120 min of incubation time at 37° C., 5% CO2, 95% relative humidity. At the end of incubation, sample solutions from both donor and receiver wells were mixed with acetonitrile containing internal standard (IS) immediately. Samples were analyzed including starting dosing solution, donor solution, and receiver solution by LC/MS/MS (API-4500). Concentrations of test compound was expressed as area ratio of analytes versus internal standard (IS).
A passive permeability was determined by complete chemical inhibition of the three major efflux transporters, ABCB1 (P-gp), ABCG2 (BCRP) and […] in Caco-2 cells using a cocktail of chemical inhibitors quinidine (P-gp), sulfasalazine (BCRP) and benzbromarone (MRP2)
The mean apparent permeability (Papp, X 10^−[…]) is calculated as follows
[formula] Where dq/dt=rate of transport (rate of transport of compound in the receiver compartment), Co=initial concentration in the donor compartment, A=surface area of the effective filter membrane. Plot the cumulative amount of transported drug against time to obtain rate transport. The percent recovery was calculated using the following equation

[4] = Pharmacokinetic study in rats; format: in vivo, male Sprague-Dawley (SD) rats; conditions: for Vd / clearance / half-life / Cmax / Tmax / bioavailability: male, Sprague-Dawley, plasma; for Vd: read-out: Vss; for Cmax / Tmax: p.o; for Cmax: read-out: Cmax (head Co*/); for Tmax: read-out: Tmax (head Tma); for bioavailability: rat
Procedure: Intravenous (i.v) and Oral formulations for pharmacokinetic (PK) studies was formulated in different vehicles and excipients to achieve the desirable solubility for intravenous and Oral routes of administration.
Appropriate amount of the test compound was weighed and dissolved in required volume of the vehicles, followed by vertexing for a few seconds to dissolve the compound. Then the solution (or) suspension was sonicated at room temperature for 5 minutes to obtain a visually clear solution and or homogenous suspension. All the formulations were prepared freshly at room temperature before dosing.
The rodent pharmacokinetic studies were carried out in male Sprague-Dawley (SD) rats (8-12 weeks of age, weighing 280±20 g at the time of dosing) and CD1 mice (8-12 weeks of age, weighing 30-35 g body weight at the time of dosing) to estimate the plasma clearance, volume of distribution and terminal half-life, area under curve (AUC) and peak plasma concentration (Cmax) and time of peak plasma concentration (Tmax) following intravenous and oral routes of administration. The detailed experimental design is described in the Table 8 below.
Rats were anaesthetized by Isoflurane anaesthesia. The jugular and femoral veins of rat were cannulated, and the study was performed 48 h post cannulation. At each time point about 100 μL, of rat blood was collected from the jugular vein into a labelled microfuge tube containing 200 mM K2EDTA solution (20 μL, per mL of blood) and equivalent volume of heparinized saline was replaced following sample collection. Similarly, 25 μL, of mice blood was collected from the saphenous vein into a labelled microfuge tube containing 200 mM K2EDTA solution
Serial blood sampling method was used for blood collection. Blood samples were collected at pre-dose, 0.25 h, 0.5, 1, 2, 4, 6, 8 and 24-hours post dose. The blood samples were processed to obtain the plasma samples within 30 min of scheduled sampling time. All plasma samples were stored −70° C. until bioanalysis.
Plasma samples were analysed for a fit-for purpose LC-MS/MS method with a lower limit of quantification. The pharmacokinetic parameters were calculated using the non-compartmental analysis tool of validated Phoenix® WinNonlin® software (Certara, USA version 8.4) with linear up and log down method for estimating AUC.
All animals in intravenous (IV bolus) group were under fed state and animals in oral groups were fasted overnight (min 12 hr) before dose administration and food was provided 4 h post dose administration. All animals were received water ad libitum during the study period. The mean (±SD) pharmacokinetic parameters of Example 13, Example 122b & Example 39 following IV bolus and Oral dose administration in Mice/Rat and Dog is provided in Table-9.

[5] = biological target: T1, A2B receptor (Homo sapiens, UniProt P29275); assay: A2bR antagonism IC50, cAMP TR-FRET in HEK-293 cells, high concentration of adenosine (30 μM); conditions: A2BR IC50 (nM) (@30 μM Adenosine), HEK-293 cells expressing A2B receptor; agonist adenosine 30 μM; 2% HSA; inhibition of cAMP;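 further: compounds preincubated 10 min with cells, then adenosine stimulation 30 min at room temperature in buffer with Rolipram 100 µM and EHNA 30 µM, TR-FRET read after 1 h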
T1 sequence (P29275 1-332): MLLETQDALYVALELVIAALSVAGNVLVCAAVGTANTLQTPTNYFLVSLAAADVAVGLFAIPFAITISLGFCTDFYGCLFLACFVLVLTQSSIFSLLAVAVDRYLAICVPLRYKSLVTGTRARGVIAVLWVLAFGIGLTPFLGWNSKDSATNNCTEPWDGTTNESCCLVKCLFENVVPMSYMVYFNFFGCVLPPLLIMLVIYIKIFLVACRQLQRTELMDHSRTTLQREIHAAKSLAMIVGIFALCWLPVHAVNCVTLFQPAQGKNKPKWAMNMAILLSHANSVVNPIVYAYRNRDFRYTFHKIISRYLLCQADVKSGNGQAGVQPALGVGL
Procedure: A Time-Resolved Fluorescence Energy Transfer (TR-FRET) assay was used to show the inhibition of this cAMP production in HEK cells upon treatment with compounds of the Formula I of the present disclosure.
HEK-293 cells expressing A2A receptor (#ES-011-C) or A2B receptor (#ES 013-C) were obtained from PerkinElmer. Cells were maintained in DMEM medium supplemented with 10% FBS and 200 μg/mL of G418 at 37° C. and 5% CO2. The cells were cultured in antibiotic free medium for a period of 16-20 hours prior to the assay. All subsequent steps of the assay are performed at room temperature (22-24° C.). […] About 1500 cells per well were pre-incubated for 10 minutes with the compounds of the present invention before adding the agonist Adenosine at a high concentration (30 μM) for a total stimulation time of 30 minutes. […] The assays were conducted in a stimulation buffer containing 1×DMEM, 5 mM HEPES, 2% Human serum albumin (HSA), 100 μM Rolipram and 30 μM erythro-9-(2-hydroxy-3-nonyl) adenine (EHNA). Serial dilutions of compounds were made in stimulation buffer to achieve a final concentration of high micromolar in a reaction volume of 10 μL. The total reaction volume was 10 μL (5 μL of cells, 2.5 μL of antagonist and 2.5 μL of agonist). […] The stimulation was ended, and the reaction completed by adding 5 μL of 4× Eu-cAMP tracer working solution and 5 μL of 4× ULight-anti-cAMP working solution. The TR FRET signal was measured after 1-hour incubation using a Tecan M1000 or a PerkinElmer Victor Nivo plate reader.

[6] = Rat, IV bolus, Table 6, read-out: T1/2 (IV bolus) (converted)
[7] = oral, Rat, Table 6, read-out: % F
[8] = oral, Rat, oral vs IV bolus, doses per compound, read-out: % F (bioavailability)

| fraction unbound at 18 h, 10 µM [1] | fraction unbound at 18 h, 10 µM [2] | Papp A→B at 120 min, 10 µM [3] [×10⁻⁶ cm/s] | Papp B→A at 120 min, 10 µM [3] [×10⁻⁶ cm/s] | Total CLsystemic in plasma ([4]; Rat, Table 6) [mL/min/kg] | Vd ([4]; intravenous, Rat, Table 6) [L/kg] | half-life [4, 6] [min] | bioavailability [4, 7] [%] | IC50 [5] [nM] | bioavailability [4, 8] [%] | Distribution relative to TBW ([4]; rats & mice) [× TBW] | Structure (SMILES) | also measured |
| --- | --- | --- | --- | --- | --- | --- | --- | --- | --- | --- | --- | --- |
| 0.15 | 0.117 | 14.4 | 15.9 | 78 | 1.6 | 19.8 | 21 | 521 | – | – | CCc1c(C)nn2c(N)c(C#N)c(NCCc3ccn(C4COCC4CO)n3)nc12 (single isomer, unassigned; (-)) [Example 122b, (−)-7-amino-3-ethyl-5-((2-(1-(4-(hydroxymethyl)tetrahydrofuran-3-yl)-1H-pyrazol-3-yl)ethyl)amino)-2-methyl pyrazolo[1,5-a]pyrimidine-6-carbonitrile] | Total plasma systemic clearance (CL) relative to hepatic blood flow ([4]; Rat, IV bolus): 1.3 ×; Co (head Co*/) ([4]; Rat, i.v, 5 mg/kg): 4169 ng/m; clearance ([4]; iv, Rat, i.v, 5 mg/kg): 78 ± 17 mL/min/kg; Vd ([4]; iv, Rat, i.v, 5 mg/kg): 1.58 L/kg; half-life ([4]; iv, Rat, i.v, 5 mg/kg, read-out: t1/2 (converted)): 18 min; Cmax ([4]; po, Rat, 30 mg/kg): 983 ng/mL; Tmax ([4]; po, Rat, 30 mg/kg): 30 min; bioavailability ([4]; oral, 30 mg/kg, Rat, oral vs IV bolus, doses per compound, read-out: % F (bioavailability)): 21% |
| 0.09 | 0.05 | 58 | 19.5 | 69 | 1.4 | 24.6 | < 1 | 2320 | < 5 | 2 | Cc1cccc(CCNc2nc3c(C)c(C)nn3c(N)c2C#N)n1 [Example 13, 7-amino-5-((2-(6-methylpyridin-2-yl)ethyl)amino)-2,3-dimethylpyrazolo[1,5-a]pyrimidine-6-carbonitrile] | Co (head Co*/) ([4]; Rat, i.v, 3 mg/kg): 2242 ng/m; clearance ([4]; iv, Rat, i.v, 3 mg/kg): 69 ± 9 mL/min/kg; Vd ([4]; iv, Rat, i.v, 3 mg/kg): 1.4 L/kg; half-life ([4]; iv, Rat, i.v, 3 mg/kg, read-out: t1/2 (converted)): 24 min; Cmax ([4]; po, Rat, 10 mg/kg): 4.2 ng/mL; Tmax ([4]; po, Rat, 10 mg/kg): 12 min; bioavailability ([4]; po, Rat, oral vs IV bolus, doses per compound, read-out: % F (bioavailability)): < 1% |
| 0.156 | 0.0913 | 18.4 | 18.5 | 90 | 2.4 | 72 | 27 | 1830 | 27 | 2 | CCc1c(C)nn2c(N)c(C#N)c(NCCc3ccn(C4(CO)CC4)n3)nc12 [Example 39, 7-amino-3-ethyl-5-((2-(1-(1-(hydroxymethyl)cyclopropyl)-1H-pyrazol-3-yl)ethyl)amino)-2-methylpyrazolo[1,5-a] pyrimidine-6-carbonitrile] | Co (head Co*/) ([4]; Rat, i.v, 15 mg/kg): 8676 ng/m; clearance ([4]; iv, Rat, i.v, 15 mg/kg): 90 ± 15 mL/min/kg; Vd ([4]; iv, Rat, i.v, 15 mg/kg): 2.4 L/kg; half-life ([4]; iv, Rat, i.v, 15 mg/kg, read-out: t1/2 (converted)): 72 min; Cmax ([4]; po, Rat, 100 mg/kg): 4100 ng/mL; Tmax ([4]; po, Rat, 100 mg/kg): 12 min; Total CL relative to hepatic clearance ([4]; rats & mice): 1.6 × |
